Assay results: ChEMBL document CHEMBL3301555, “MMV Malaria Box screening in pLDH viability assay against Plasmodium falciparum gametocytes”

test system: Plasmodium falciparum; test: MMV: Measure of pLDH activity as indication of parasite viability. Gametocytogenesis of 3D7 Plasmodium falciparum strain was induced in vitro and asexual parasites were depleted with N-acetylglucosamine. Gametocytes were treated with dihydroartemisinin, epoxomicin, methylene blue, primaquine, puromycin or chloroquine in 96-well plates and the pLDH activity was evaluated using a modified Makler protocol. Mosquito infectivity was measured by the standard membrane feeding assay.; format: functional; parameters: concentration or dose not given beside the values

SMILES | Growth Inhibition [%]
CN1CCN(c2c3c(c(C#N)c4nc5ccccc5n24)CCC3)CC1 | 7.7684
Nc1ccn([C@@H]2O[C@H](CO)[C@@H](O)[C@H]2O)c(=O)n1 [CYTIDINE] | 13.5248
O=C(c1ccccc1F)N(Cc1ccc(Cl)cc1)c1ccccn1 | 9.2554
Cc1ccc2nc(C)cc(Nc3cccc(C(F)(F)F)c3)c2c1.Cl | -5.193
O=C1c2ccccc2-c2nnc(-c3ccc(Br)cc3)cc21 | 29.9528
Cc1cc(Nc2cccc(F)c2)nc(NCc2ccccc2)n1 | 7.8192
O=C(NCc1ccco1)C1CCN(S(=O)(=O)c2ccc(Br)cc2)CC1 | 6.982
Cn1c(C(=O)c2cccc3ccccc23)nc2ccccc21 | -3.612
O=C1c2ccc3c4c(ccc(c24)C(=O)N1CCCCO)C(=O)N(CCCCO)C3=O | 33.201
OC1CCCCC1C1(NC(=S)Nc2ccccc2)CCCCC1 (stereo not given) | -6.2185
Cc1c(C)n(Cc2ccc(F)cc2)c2ccc(C(=O)NCc3ccco3)cc12 | 19.2814
CCN1CCN(c2cc(C)c3cc(NC(=O)c4ccc(OC)c(OC)c4)ccc3n2)CC1 | 12.8102
Cc1cccc(Nc2nc(N)c3ccccc3n2)c1.Cl | -0.3732
COCCNC(=O)c1ccc(OC2CCN(Cc3ccc(F)c(F)c3)CC2)c(Cl)c1 | 5.6964
COc1cc(CNCCc2ccc(Cl)cc2)cc(OC)c1O | 17.1102
COc1ccc(-c2c(C)nn3c(N)c(C#N)cnc23)cc1OC | 32.2252
CC1CCCCN1CCCNC(=O)c1ccc2c(c1)sc1nc(-c3ccc(F)cc3)cn12 (stereo not given) | 16.9994
Cc1ccc(N2C3c4ccccc4N(S(=O)(=O)c4ccc(C)cc4)C2c2ccccc2N3S(=O)(=O)c2ccc(C)cc2)cc1 | -2.5084
Oc1ccc(Cl)cc1CNc1nc2ccccc2[nH]1 | 5.249
O=[N+]([O-])c1ccc(C=NNc2nc3ccccc3[nH]2)cc1 | -2.3354
CCCCNc1nc(NC(C)(C)C)nc(NC(C)(C)C)n1 | 40.1594
CCOc1cccc(C(=O)Nc2ccc(-c3nc4ccccc4[nH]3)cc2)c1 | 7.5178
CCn1nc(-c2ccc(C(=O)OC)cc2)nc2c(=O)n(C)c(=O)nc1-2 | 19.8788
CC(NCc1ccccc1)c1cc(Cl)ccc1O (stereo not given) | 40.6308
CCCN(CCC)CC(O)COc1ccccc1C(=O)Nc1ccccc1 (stereo not given) | 34.3502

SMILES | Growth Inhibition [%]
FC(F)(F)c1cccc(Nc2nc3ccccc3nc2Nc2cccc(C(F)(F)F)c2)c1 | 23.1188
CCN(CC)c1cc(C)c2cc(NC(=O)c3cccc(OC)c3)ccc2n1 | 11.335
Cc1cc(N2CCCC2)nc(Nc2ccc(NC(=O)CCc3ccccc3)cc2)n1 | 14.278
CC(C)c1ccc(CNCC(O)c2ccccc2)cc1.Cl (stereo not given) | 37.0308
CCCCC(O)(c1ccc(Cl)cc1)C(CN1CCOCC1)c1ccc(Cl)cc1.Cl (stereo not given) | 3.244
O=C(Cc1ccccc1)NC(c1ccc(Cl)cc1)c1c(O)ccc2ccccc12 (stereo not given) | 13.3694
CCCCCCc1cc2cc(-c3nc4ccccc4[nH]3)c(=Nc3ccccc3C)oc2cc1O | 18.3094
CCN(CC)CCCNc1nc(-c2ccc(Cl)cc2)nc2ccccc12 | 7.9964
CCOc1cc(Br)c(C(C)NC(=O)c2cccc(OC)c2)cc1OCC (stereo not given) | 15.2596
COc1ccc(C2N(C)c3ccccc3N2C)cc1 | 3.9982
O=C(Nc1ccc(Cl)cc1C(=O)Nc1ccncc1)c1ccc(Cl)cc1Cl | 4.844
COc1ccc(Br)cc1C1Nc2ccc3ccccc3c2C2=C1C(=O)CC(c1ccccc1)C2 (stereo not given) | 7.0344
C[n+]1c2ccccc2nc2ccc(NCCO)cc21 | 16.8202
Cc1cc(NCCN2CCCCC2)c2ccc3ccccc3c2n1 | 17.8584
COc1ccc(C2=C(c3ccc(OC)cc3)C3(c4ccccc4)C(=O)C2(c2ccccc2)C2C(=O)N(c4ccc(C)cc4)C(=O)C23)cc1 (stereo not given) | -4.8036
OC(CNC1CCCC1)Cn1c2ccccc2c2ccccc21 (stereo not given) | 39.5038
CN(C)c1ccc(C=Cc2nc(=O)c3ccccc3o2)cc1 | 1.8448
O=c1c2c([nH]c3ccccc13)CCCC2 | 19.1396
Fc1ccc2[nH]c3c(NCCCN4CCOCC4)ncnc3c2c1 | 3.632
CC(=O)NCCc1nc2ccccc2n1Cc1ccc(C(C)C)cc1 | 10.8344
COc1cccc(C=Cc2nc(=O)c3ccccc3o2)c1OC | 2.1344
CCN(CC)CCNc1ncnc2c1[nH]c1ccc(Cl)cc12 | 10.0038
Cc1ccc(-c2cc3c(nn2)-c2ccccc2C3=O)cc1 | 32.1362
CCN1CCCC1CNc1[nH]cnc2c3cc(Cl)ccc3nc1-2 (stereo not given) | 8.5536
COc1ccccc1N1CCN(C(CNS(=O)(=O)c2ccc(Cl)cc2)c2cccnc2)CC1 (stereo not given) | 14.3398

SMILES | Growth Inhibition [%]
COc1ccc2nc(C)cc(Nc3ccc(Cl)cc3)c2c1 | 15.7236
COc1ccc(C2c3ccc4ccccc4c3Oc3ncn(CCCn4ccnc4)c(=N)c32)cc1OC (stereo not given) | 22.0606
CCCCCCC(O)(c1ccc(F)cc1)C(CN1CCOCC1)c1ccccc1.Cl (stereo not given) | -0.4664
CC1CCN(Cc2c(O)ccc3cc(-c4nc5ccccc5s4)c(=O)oc23)CC1 | 9.8172
CCCCOc1ccc(C(=O)Nc2cc(C)on2)cc1 | -2.1422
O=C(CCl)NCCOc1ccc(Cl)cc1Cl | 8.2288
Cc1cc(Nc2ccc(C)c(Cl)c2)n2nc(C(F)(F)F)nc2n1 | 1.818
CCCn1c(=N)c(C(=O)NC2CCCCC2)cc2c(=O)n3cccc(C)c3nc21 | 2.4486
O=C(NC1CCN(Cc2ccccc2)CC1)c1cc(-c2cccnc2)nc2ccc(Cl)cc12 | 12.1742
CN(C)CCNc1cc(-c2ccccc2)nc2ccccc12 | 2.7026
O=C(Nc1ccc(-c2nc3cc4ccccc4cc3[nH]2)cc1)c1cccc(Br)c1 | 12.54
O=C(Nc1ccc(N2CCCCC2)c(Cl)c1)c1ccc(Br)o1 | -4.8588
COc1ccc(-c2nc(NC(=O)CS(=O)(=O)c3ccc(F)cc3)sc2C)cc1 | 30.52
CCCCc1ccc(NS(=O)(=O)c2cc3c4c(c2)CCN4C(=O)CC3)cc1 | -1.4264
CCN(Cc1ccccc1)C1CCN(Cc2cc(Br)ccc2O)CC1.O=C(O)C(=O)O | 47.2545
Cc1sc(NC(=O)c2ccccc2)c(C(c2cccs2)N2CCN(c3ccccc3)CC2)c1C (stereo not given) | 0.692
O=C(NC1CCCCC1)C(c1cccs1)N(CCc1ccccc1)C(=O)c1ccco1 (stereo not given) | 7.269
COc1ccc(C2Sc3ccccc3N=C3C2=C(O)c2ccccc23)cc1 (stereo not given) | -5.7444
Cc1nc2ccccc2c(O)c1CC=C(Cl)Cl | 28.4855
CCOc1cc2c(cc1OCC)C(c1cc(Cl)c(O)c(OCC)c1)NCC2 (stereo not given) | 16.0386
CCOc1ccc2nc(C)cc(Nc3ccc(N(C)C)cc3)c2c1.Cl | 13.9954
CC1CCN(Cc2ccc(NC(=O)c3cc4ccc5cccnc5c4[nH]3)cc2)CC1 | 2.4882
CCOc1ccc(/C=C/c2nc(=O)c3ccccc3o2)cc1 | 7.7706
OC1=C2C(=Nc3ccccc3SC2c2ccccc2)c2ccccc21 (stereo not given) | 34.196
CCOc1ccc(-n2cc(-c3ccccc3)c3c(SCc4cc(C)ccc4C)ncnc32)cc1 | 2.789

SMILES | Growth Inhibition [%]
CCc1c(C)c(=N)c2ccccc2n1C.I | -4.4994
COc1ccc(C2C(C(=O)Nc3cccc(OC)c3)c3ccccc3C(=O)N2C2CCCCC2)cc1 (stereo not given) | -2.347
O=C(Nc1ccccc1O)c1ccc(-c2ccc(Cl)cc2Cl)o1 | 15.81
COc1ccc2c(c1OC)C(=O)N1c3ccccc3N=C(c3ccc(C)cc3)CC21 (stereo not given) | 14.488
Cc1cc(C)cc(Nc2cc(C)nc3nc(C(F)(F)F)nn23)c1 | -10.2568
Oc1ccc(-c2nc(-c3ccc4oc5ccc(-c6[nH]c(-c7ccc(O)cc7)nc6-c6ccccc6)cc5c4c3)c(-c3ccccc3)[nH]2)cc1 | 21.6376
CCOc1ccccc1NC(=O)CN1CCN(C(=O)c2ccco2)CC1 | 5.6622
COc1ccc(NC(=O)C2c3ccccc3C(=O)N(CC(C)C)C2c2cccs2)cc1Cl (stereo not given) | 14.3436
CCCCc1c(CCC)c(=N)c2ccccc2n1C.I | 1.3375
COc1cc(OC)c(N(C)C(=O)c2cc3c(s2)-c2ccccc2S(=O)(=O)C3)cc1Cl | 6.301
CCOc1cc2c(cc1OCC)C(c1cc(Cl)ccc1O)NCC2 (stereo not given) | 24.0914
COc1cccc(-c2nn(C)c3sc(C(=O)NCCN4CCN(c5ccccc5F)CC4)cc23)c1 | 20.4084
CCN1CCN(Cc2ccc(NC(=O)c3cc4ccc5cccnc5c4[nH]3)cc2)CC1 | 4.9364
COc1ccc(CCN2CCC(CN(C)Cc3cnn(-c4ccccc4)c3)CC2)cc1 | 34.868
O=C(NNc1cc(N2CCCC2)nc(N2CCCC2)n1)c1ccccc1 | 2.419
O=C(NCC1Cc2cccc(-c3ccncc3)c2O1)c1csc2c1CCCC2 (stereo not given) | 15.175
CCN1CCN(c2c(C(=O)c3ccccc3)cnc3cc(OC)c(OC)cc23)CC1 | -1.335
Cc1ccc(OCCCCCCNCCO)c(C)c1 | 3.067
CCOC(=O)c1cn(CC)c2cc(N3CCCCC3)c(F)cc2c1=O | 27.8444
CCc1ccc(CNCC(O)c2ccccc2)cc1.Cl (stereo not given) | 26.7
Cc1cc(N2CCN(C3CCCC3)CC2)n2c(nc3ccccc32)c1C#N | 0.943
CCOC(=O)C1=C(c2ccccc2)N=c2sc(=Cc3cc(C)n(-c4ccc(F)cc4)c3C)c(=O)n2C1c1cccc(OC)c1OC (stereo not given) | -7.255
COc1ccc(N2CCN(C(CNC(=O)C3CCCCC3)c3ccc4c(c3)OCO4)CC2)cc1 (stereo not given) | 22.7332
COc1ccccc1C(=O)ON=C(N)Cc1cccc2ccccc12 | 8.274
CCc1ccc(Nc2cc(C)nc3nc(C)nn23)cc1 | -2.3802
